Counter-ions that a name gives are not always drawn. Like-named read-outs stand apart in the source and are kept apart here.

The test system of the assay is caudate lesioned mouse. Briefly: caudate lesioned mouse test (anti-parkinson activity). Format: in vivo. To be noted: for ED50: caudate lesioned mouse; for responders at 6.5 µmol/kg: dose 0.0065 m. mole/kg; for responders at 132 µmol/kg: dose 0.132 m. mole/kg; for Molar Potency Ratio Claimed/Ref. Ester: claimed N-propyl ester vs corresponding N-methyl reference ester. Put shortly:
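Mice with unilateral caudate lesions, recovered ≥14 days, kept only if circling toward lesion in all three periods after apomorphine 1.7 mg/kg i.p. Test drugs given in 1% gum tragacanth; doses as mg/kg free base.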

The mark [1] stands for this setting: Mus musculus, 0.5 h, dose 0.026 m. mole/kg, 1/2 h post-drug, read-out: No. Mice Affected/No. Mice Tested, 1/2 h (converted).
[2] abbreviates: Mus musculus, dose 0.026 m. mole/kg, 1 h post-drug, read-out: No. Mice Affected/No. Mice Tested, 1 h (converted).
The mark [3] stands for this setting: Mus musculus, dose 0.026 m. mole/kg, 2 h post-drug, read-out: No. Mice Affected/No. Mice Tested, 2 h (converted).
[4] abbreviates: Mus musculus, dose 0.026 m. mole/kg, 4 h post-drug, read-out: No. Mice Affected/No. Mice Tested, 4 h (converted).
[5] abbreviates: Mus musculus, dose 0.026 m. mole/kg, 6 h post-drug, read-out: No. Mice Affected/No. Mice Tested, 6 h (converted).
[6] abbreviates: Mus musculus, dose 0.026 m. mole/kg, 24 h post-drug, read-out: No. Mice Affected/No. Mice Tested, 24 h.
The mark [7] stands for this setting: Mus musculus, dose 0.026 m. mole/kg, total, read-out: No. Mice Affected/No. Mice Tested, Total (converted).
[8] abbreviates: Mus musculus, 0.5 h, read-out: No. Mice Affected/No. Mice Tested, 1/2 h.
Setting [9] is: Mus musculus, 1 h, read-out: No. Mice Affected/No. Mice Tested, 1 h.
[10] abbreviates: Mus musculus, 4 h, read-out: No. Mice Affected/No. Mice Tested, 4 h.
Where [11] appears, read: Mus musculus, 6 h, read-out: No. Mice Affected/No. Mice Tested, 6 h.
The mark [12] stands for this setting: Mus musculus, 24 h, read-out: No. Mice Affected/No. Mice Tested, 24 h.
Where [13] appears, read: Mus musculus, read-out: No. Mice Affected/No. Mice Tested, Total.
Setting [14] is: Mus musculus, 0.5 h, 1/2 h post-drug, read-out: No. Mice Affected/No. Mice Tested, 1/2 h (converted).
The mark [15] stands for this setting: Mus musculus, 1 h post-drug, read-out: No. Mice Affected/No. Mice Tested, 1 h (converted).
Setting [16] is: Mus musculus, 4 h post-drug, read-out: No. Mice Affected/No. Mice Tested, 4 h (converted).
[17] abbreviates: Mus musculus, 6 h post-drug, read-out: No. Mice Affected/No. Mice Tested, 6 h (converted).
Setting [18] is: Mus musculus, 24 h post-drug, read-out: No. Mice Affected/No. Mice Tested, 24 h (converted).
Where [19] appears, read: Mus musculus, total, read-out: No. Mice Affected/No. Mice Tested, Total (converted).
The mark [20] stands for this setting: Mus musculus, 0.5 h, dose 0.052 m. mole/kg, 1/2 h post-drug, read-out: No. Mice Affected/No. Mice Tested, 1/2 h (converted).
The mark [21] stands for this setting: Mus musculus, dose 0.052 m. mole/kg, 1 h post-drug, read-out: No. Mice Affected/No. Mice Tested, 1 h (converted).
[22] abbreviates: Mus musculus, dose 0.052 m. mole/kg, 4 h post-drug, read-out: No. Mice Affected/No. Mice Tested, 4 h (converted).
Setting [23] is: Mus musculus, dose 0.052 m. mole/kg, 6 h post-drug, read-out: No. Mice Affected/No. Mice Tested, 6 h (converted).
Setting [24] is: Mus musculus, dose 0.052 m. mole/kg, 24 h post-drug, read-out: No. Mice Affected/No. Mice Tested, 24 h.
[25] abbreviates: Mus musculus, dose 0.052 m. mole/kg, total, read-out: No. Mice Affected/No. Mice Tested, Total (converted).
[26] abbreviates: Mus musculus, 2 h, read-out: No. Mice Affected/No. Mice Tested, 2 h.

As to `CCCN1CCc2cccc3c2C1Cc1ccc(OC(=O)c2ccc(OC)cc2)c(OC(=O)c2ccc(OC)cc2)c1-3` (centres unmarked) [Ex. 1J, N-Propylnorapomorphine bis-4-methoxybenzoate], where the note is “ED50, read-out: ED50”, the ED50 came out at 13 µmol/kg. Also, the responders at 6.5 µmol/kg (Mus musculus, 0.5 h, 1/2 h post-drug, read-out: No. Mice Affected/No. Mice Tested, 1/2 h) amounted to 0%; the responders at 6.5 µmol/kg (Mus musculus, 1 h post-drug, read-out: No. Mice Affected/No. Mice Tested, 1 h) stood at 0%; the responders at 6.5 µmol/kg (Mus musculus, 2 h post-drug, read-out: No. Mice Affected/No. Mice Tested, 2 h) came out at 0%; the responders at 6.5 µmol/kg (Mus musculus, 4 h post-drug, read-out: No. Mice Affected/No. Mice Tested, 4 h) is 0%; the responders at 6.5 µmol/kg (Mus musculus, 6 h post-drug, read-out: No. Mice Affected/No. Mice Tested, 6 h) turned out to be 0%; the responders at 6.5 µmol/kg (Mus musculus, 24 h post-drug, read-out: No. Mice Affected/No. Mice Tested, 24 h) came to 0%. For the same compound, for the setting “Mus musculus, total, read-out: No. Mice Affected/No. Mice Tested, Total”, the responders at 6.5 µmol/kg worked out at 0%. In addition, the responders at 26 µmol/kg by setting is: under setting [1], 50%; under setting [2], 100%; under setting [3], 75%; under setting [4], 50%; under setting [5], 50%; under setting [6], 0%. Further, under setting [7], the responders at 26 µmol/kg is 100%.
Regarding `CC(C)C(=O)Oc1ccc2c(c1OC(=O)C(C)C)-c1cccc3c1C(C2)N(C)CC3` (centres unmarked) [Ref. 1B, reference compound], the responders at 208 µmol/kg by setting is: under setting [8], 0%; under setting [9], 0%; under setting [10], 25%; under setting [11], 0%; under setting [12], 0%; under setting [13], 25%.
For the compound `CCCN1CCc2cccc3c2C1Cc1ccc(O)c(O)c1-3` (centres unmarked) [N-propylnorapomorphine], the ED50 (Mus musculus, po, read-out: ED50, on oral administration, oral) was determined as 3.2 µmol/kg.
As for `CCCC(=O)Oc1ccc2c(c1OC(=O)CCC)-c1cccc3c1C(C2)N(CCC)CC3` (centres unmarked) [Ex. 1A, N-Propylnorapomorphine dibutanoate], the responders at 26 µmol/kg is 0% under setting [1]; 0% under setting [2]; 0% under setting [3]; 0% under setting [4]; 0% under setting [5]; 0% under setting [6]. Under setting [7], the responders at 26 µmol/kg is 0%. In addition, the responders at 132 µmol/kg reads like this: under setting [14], 50%; under setting [15], 100%; (Mus musculus, 2 h post-drug, read-out: No. Mice Affected/No. Mice Tested, 2 h (converted)) 100%; under setting [16], 100%; under setting [17], 100%; under setting [18], 100%. The responders at 132 µmol/kg under setting [19] is 100%.
`CCCN1CCc2cccc3c2C1Cc1ccc(OC(=O)C(C)(C)C)c(OC(=O)C(C)(C)C)c1-3` (centres unmarked) [Ex. 1C, N-Propylnorapomorphine dipivaloate]: the “Molar Potency Ratio Claimed/Ref. Ester” value was no less than 16. Also, the responders at 26 µmol/kg under setting [1] is 0%. Besides, under setting [2], the responders at 26 µmol/kg is 0%. Moreover, the responders at 26 µmol/kg under setting [4] is 100%. For the same compound, under setting [5], the responders at 26 µmol/kg was 100%. The responders at 26 µmol/kg under setting [6] turned out to be 0%. Also, the responders at 26 µmol/kg under setting [7] is 100%.
Consider `CCCCCCCCCCCCCCCC(=O)Oc1ccc2c(c1OC(=O)CCCCCCCCCCCCCCC)-c1cccc3c1C(C2)N(CCC)CC3` (centres unmarked) [Ex. ID, N-Propylnorapomorphine dihexadecanoate], for which the “Molar Potency Ratio Claimed/Ref. Ester” value was no less than 8. Further, the responders at 52 µmol/kg under setting [20] was 0%. For the same compound, under setting [14], the responders at 132 µmol/kg was 0%. Also, the responders at 52 µmol/kg under setting [21] was 0%. Moreover, under setting [22], the responders at 52 µmol/kg is 25%. Under setting [23], the responders at 52 µmol/kg is 25%. Besides, the responders at 52 µmol/kg under setting [24] came out at 0%. Also, the responders at 52 µmol/kg under setting [25] was 25%. Further, the responders at 132 µmol/kg under setting [15] was 0%. The responders at 132 µmol/kg under setting [16] is 100%. In addition, the responders at 132 µmol/kg under setting [17] is 0%. Also, under setting [18], the responders at 132 µmol/kg is 33.3%. The responders at 132 µmol/kg under setting [19] is 100%.
Turning to `CCC(=O)Oc1ccc2c(c1OC(=O)CC)-c1cccc3c1C(C2)N(C)CC3` (centres unmarked) [Ref. 1, reference compound], the responders at 26 µmol/kg reads like this: under setting [8], 0%; under setting [9], 0%; under setting [26], 0%; under setting [10], 0%; under setting [11], 0%; under setting [12], 0%. Under setting [13], the responders at 26 µmol/kg amounted to 0%. For the same compound, the responders at 52 µmol/kg is 25% under setting [8]; 25% under setting [9]; 0% under setting [26]; 0% under setting [10]; 0% under setting [11]; 25% under setting [13]. The responders at 104 µmol/kg is 41.7% under setting [8]; 41.7% under setting [9]; 0% under setting [26]; 0% under setting [10]; 0% under setting [11]; 41.7% under setting [13]. Also, the responders at 208 µmol/kg is, setting by setting: under setting [8], 100%; under setting [9], 100%; under setting [26], 100%; under setting [10], 50%; under setting [11], 0%; under setting [12], 0%. Under setting [13], the responders at 208 µmol/kg is 100%. The same compound came in with an ED50 (Mus musculus, ED50) of 98 µmol/kg.
Regarding `CCCN1CCc2cccc3c2C1Cc1ccc(OC(=O)CC)c(OC(=O)CC)c1-3` (centres unmarked) [Ex. 1 (Base), N-propylnorapomorphine dipropionate], the “Molar Potency Ratio Claimed/Ref. Ester” value was 10. Further, under setting [8], the responders at 5.2 µmol/kg was found to be 0%, the responders at 13 µmol/kg was 75% and the responders at 26 µmol/kg is 100%. In addition, under setting [9], the responders at 5.2 µmol/kg was found to be 0%, the responders at 13 µmol/kg is 75% and the responders at 26 µmol/kg is 100%. Moreover, under setting [26], the responders at 5.2 µmol/kg worked out at 0%, the responders at 13 µmol/kg is 75% and the responders at 26 µmol/kg is 75%. Besides, under setting [10], the responders at 5.2 µmol/kg is 0%, the responders at 13 µmol/kg is 75% and the responders at 26 µmol/kg was 75%. Also, under setting [11], the responders at 5.2 µmol/kg turned out to be 0%, the responders at 13 µmol/kg was 50% and the responders at 26 µmol/kg was 25%. Also, under setting [12], the responders at 5.2 µmol/kg was 0%, the responders at 13 µmol/kg came to 0% and the responders at 26 µmol/kg came out at 0%. This compound had an ED50 (Mus musculus, ED50) of 10 µmol/kg. Moreover, under setting [13], the responders at 5.2 µmol/kg turned out to be 0%, the responders at 13 µmol/kg is 75% and the responders at 26 µmol/kg was 100%.
Regarding `CCCN1CCc2cccc3c2C1Cc1ccc(OC(=O)c2ccccc2)c(OC(=O)c2ccccc2)c1-3` (centres unmarked) [Ex. 1E, N-Propylnorapomorphine dibenzoate hydrochloride], the “Molar Potency Ratio Claimed/Ref. Ester” value is listed as no less than 8. Besides, the responders at 52 µmol/kg under setting [20] is 0%. The responders at 52 µmol/kg under setting [21] is 0%. Moreover, under setting [22], the responders at 52 µmol/kg was 66.7%. Besides, the responders at 52 µmol/kg under setting [23] was 33.3%. In addition, under setting [24], the responders at 52 µmol/kg amounted to 0%. Further, under setting [25], the responders at 52 µmol/kg is 66.7%.

The record behind these values is US4126616A, “N-propylnorapomorphine diesters” (Hinshaw; William B., priority 1976, dated 1978).
